Data set [1] relates to cultured human tubule cells. In words: Cell viability of cultured human tubule cells exposed to SnPP. Format: cell-based. Particulars: for % Viable Cells: n = 6, control 100%. How it is done:
The composition of Example 1 and the Comparative Example were exposed to incubated cultured human tubule cells with different concentrations of SnPP.

A further data set deals with HO-1. Nature of the data set: HO-1/GAPDH mRNA (cortex) after IV FeS + SnPP, biomarker for oxidative stress. The data set is classed as in vivo. As to conditions: combined with iron sucrose; HO-1 as indicator of oxidative stress. As to the method: The SnPP composition of Example 1 and the Comparative Example (1 micromole) were combined with iron sucrose (1 mg) to assess biomarkers for oxidative stress.

`C=CC1=C(C)C2=Cc3c(C=C)c(C)c4[n]3[Sn]([Cl])([Cl])[n]3c(c(C)c(CCC(=O)O)c3=CC3=NC(=C4)C(C)=C3CCC(=O)O)=CC1=N2` [Example 1, Stannic protoporfin]: the “% Viable Cells” value is given as 97.9% in data set [1] (SnPP 10 nmol/mL), 95.3% in data set [1] (SnPP 25 nmol/mL) and 88.9% in data set [1] (SnPP 75 nmol/mL). The same compound displayed a cell killing in data set [1] (highest concentration of SnPP (75 nmol/mL)) of 11%. In addition, in data set [1] (human tubule cells), the “cell death relative to comparative example” value was “less cell death”. In the data set on HO-1, the “HO-1 induction relative to comparative example” value is “lower HO-1 induction”.

The values are drawn from patent publication US20240166671A1, “Novel Stannic Protoporfin Compositions, Methods of Making, and Uses Thereof” (Renibus Therapeutics, Inc., priority 2022, published 2024).
